Values after ≈ are worked out from the molar mass of the structure shown. Read-outs that look alike come from different tables or passages of the source.

A word on the MIC99: it is the lowest concentration that inhibits either 99% of growth or 99% of the strains tested, depending on the study. A word on the MIC50: it is the lowest concentration that inhibits either 50% of growth or 50% of the strains tested, depending on the study.

The experiment concerns Mycobacterium tuberculosis H37Rv. The experiment is described as follows: Susceptibility testing against Mycobacterium tuberculosis H37Rv (broth microdilution, resazurin readout). The experiment is classed as cell-based. Conditions: M. tuberculosis H37Rv, 7 days at 37° C., resazurin fluorescence; for MIC99: Gomperz fit, read-out: MIC99 (μM) M. tub H37Rv; for MIC50: read-out: MIC50 (μM) M. tub H37Rv. A general note: Broth dilution looks for growth in wells or tubes with falling amounts of substance.

The mark [1] stands for this setting: Mycobacterium tuberculosis, 168 h.

Consider `FC(F)(F)Oc1ccc(C2CC(CN3CCCC3)N2Cc2ccccc2OC(F)(F)F)cc1` (racemic) [Azet 59, rac-1-(((2,4-cis)-1-(2-(trifluoromethoxy)benzyl)-4-(4-(trifluoromethoxy)phenyl)azetidin-2-yl)methyl)pyrrolidine], for which, under setting [1], the MIC99 is 6.25 µM (≈ 2.97 µg/mL) and the MIC50 stood at 9.42 µM (≈ 4.47 µg/mL).

Take `COc1ccc(C2CC(CN3CCCC3)N2Cc2ccccc2Br)cc1` (racemic) [Azet 42, rac-1-(((2,4-cis)-1-(2-bromobenzyl)-4-(4-methoxyphenyl)azetidin-2-yl)methyl)pyrrolidine]: under setting [1], the MIC99 was determined as 42.6 µM (≈ 17.7 µg/mL) and the MIC50 amounted to 20.8 µM (≈ 8.64 µg/mL).

As for `Brc1cc(Br)cc(C2CC(CN3CCCC3)N2Cc2ccccc2Br)c1` (racemic) [Azet 34, rac-1-(((2,4-cis)-1-(2-bromobenzyl)-4-(3,5-dibromophenyl)azetidin-2-yl)methyl)pyrrolidine], under setting [1], the MIC99 was determined as 3.26 µM (≈ 1.77 µg/mL) and the MIC50 was found to be 7.03 µM (≈ 3.82 µg/mL).

For the molecule `CC(C)(C)c1ccc(C2CC(CN3CCCC3)N2Cc2ccccc2C(F)(F)F)cc1` (racemic) [Azet 52, rac-1-(((2,4-cis)-4-(4-(tert-butyl)phenyl)-1-(2-(trifluoromethyl)benzyl)a-zetidin-2-yl)methyl)pyrrolidine], the MIC50 amounted to 8.62 µM (≈ 3.71 µg/mL).

Take `C#CCNCC1CC(c2cc(Br)cc(Br)c2)N1Cc1ccccc1Br` (racemic) [Azet 3, rac-N-(((2,4-cis)-1-(2-bromobenzyl)-4-(3,5-dibromophenyl)azetidin-2-yl)methyl)prop-2-yn-1-amine]: under setting [1], the MIC50 worked out at 22.8 µM (≈ 12 µg/mL).

Regarding `CN(C)CC1CC(c2ccc(OC(F)(F)F)cc2)N1Cc1ccccc1OC(F)(F)F` (racemic) [Azet 5, rac-N,N-dimethyl-1-((2,4- cis)-1-(2-(trifluoromethoxy)benzyl)-4-(4-(trifluoromethoxy)phenyl)azetidin-2-yl)methanamine], under setting [1], the MIC99 is 12 µM (≈ 5.38 µg/mL) and the MIC50 came out at 9.9 µM (≈ 4.44 µg/mL).

`CC(C)NCC1CC(c2ccccc2)N1Cc1ccccc1OC(F)(F)F` (racemic) [Azet 30, rac-N-(((2,4-cis)-4-phenyl-1-(2-(trifluoromethoxy)benzyl)azetidin-2-yl)methyl)propan-2-amine]: under setting [1], the MIC99 is 48.9 µM (≈ 18.5 µg/mL) and the MIC50 stood at 21.1 µM (≈ 7.99 µg/mL).

`CC(C)NCC1CC(c2ccc(OC(F)(F)F)cc2)N1Cc1ccccc1Br` (racemic) [Azet 29, rac-N-(((2,4-cis)-1-(2-bromobenzyl)-4-(4-(trifluoromethoxy)phenyl)azetidin-2-yl)methyl)propan-2-amine]: under setting [1], the MIC99 was 24.5 µM (≈ 11.2 µg/mL) and the MIC50 stood at 9.85 µM (≈ 4.5 µg/mL).

Take `CNCC1CC(c2ccc(OC(F)(F)F)cc2)N1Cc1ccccc1OC(F)(F)F` (racemic) [Azet 19, rac-N-methyl-1-((2,4-cis)-1-(2-(trifluoromethoxy)benzyl) (trifluoromethoxy)phenyl) azetidin-2-yl)methanamine]: under setting [1], the MIC99 turned out to be 7.2 µM (≈ 3.13 µg/mL) and the MIC50 was 4.5 µM (≈ 1.95 µg/mL).

On to `FC(F)(F)c1cccc(C2CC(CN3CCCC3)N2Cc2ccccc2C(F)(F)F)c1` (racemic) [Azet 50, rac-1-(((2,4-cis)-1-(2-(trifluoromethyl)benzyl)-4-(3-(trifluoromethyl)phenyl)a-zetidin-2-yl)methyl)pyrrolidine], for which, under setting [1], the MIC50 turned out to be 7.04 µM (≈ 3.11 µg/mL).

In the case of `CN(C)CC1CC(c2cc(C(F)(F)F)cc(C(F)(F)F)c2)N1Cc1ccccc1Br` (racemic) [Azet 4, rac-1-((2,4-cis)-4-(3,5-bis(trifluoromethyl)phenyl)-1-(2-bromobenzyl)azetidin-2-yl)-N,N-dimethylmethanamine], under setting [1], the MIC99 was found to be 7.3 µM (≈ 3.62 µg/mL) and the MIC50 was determined as 6.59 µM (≈ 3.26 µg/mL).

`FC(F)(F)c1cc(C2CC(CN3CCCC3)N2Cc2ccccc2Br)cc(C(F)(F)F)c1` (racemic) [Azet 33, rac-1-(((2,4-cis)-4-(3,5-bis(trifluoromethyl)phenyl)-1-(2-bromobenzyl)azetidin-2-yl)methyl)pyrrolidine]: under setting [1], the MIC99 was determined as 3.29 µM (≈ 1.72 µg/mL) and the MIC50 came out at 6.93 µM (≈ 3.61 µg/mL).

`COc1ccccc1CN1C(CN2CCCC2)CC1c1ccc(Cl)cc1` (racemic) [Azet 53, rac-1-(((2,4-cis)-4-(4-chlorophenyl)-1-(2-methoxybenzyl)azetidin-2-yl)methyl)pyrrolidine]: under setting [1], the MIC50 worked out at 10.3 µM (≈ 3.82 µg/mL).

On to `COc1ccccc1CN1C(CN2CCCC2)CC1c1cccc(Cl)c1` (racemic) [Azet 54, rac-1-(((2,4-cis)-4-(3-chlorophenyl)-1-(2-methoxybenzyl)azetidin-2-yl)methyl)pyrrolidine], for which the MIC50 under setting [1] worked out at 11.7 µM (≈ 4.34 µg/mL).

Consider `FC(F)(F)c1ccccc1CN1C(CN2CCCC2)CC1c1ccccc1C(F)(F)F` (racemic) [Azet 49, rac-1-(((2,4-cis)-1-(2-(trifluoromethyl)benzyl)-4-(2-(trifluoromethyl)phenyl)a-zetidin-2-yl)methyl)pyrrolidine], for which the MIC50 under setting [1] worked out at 6.68 µM (≈ 2.96 µg/mL).

For the molecule `COc1ccccc1CN1C(CN2CCCC2)CC1c1ccc(Br)cc1` (racemic) [Azet 48, rac-1-(((2,4-cis)-4-(4-bromophenyl)-1-(2-methoxybenzyl)azetidin-2-yl)methyl)pyrrolidine], under setting [1], the MIC50 worked out at 20.3 µM (≈ 8.43 µg/mL).

As to `FC(F)(F)Oc1ccc(C2CC(CNC3CC3)N2Cc2ccccc2OC(F)(F)F)cc1` (racemic) [Azet 18, rac-N-(((2,4-cis)-1-(2-(trifluoromethoxy)benzyl)-4-(4-(trifluoromethoxy)phenyl)azetidin-2-yl)methyl)cyclopropana-mine], under setting [1], the MIC99 turned out to be 13 µM (≈ 5.99 µg/mL) and the MIC50 worked out at 11.9 µM (≈ 5.48 µg/mL).

Turning to `COCCNCC1CC(c2ccc(OC(F)(F)F)cc2)N1Cc1ccccc1OC(F)(F)F` (racemic) [Azet 20, rac-2-methoxy-N-(((2,4- cis)-1-(2-(trifluoromethoxy)benzyl)-4-(4-(trifluoromethoxy)phenyl)azetidin-2-yl)methyl)ethan-1-amine], under setting [1], the MIC99 is 18 µM (≈ 8.61 µg/mL) and the MIC50 was 11 µM (≈ 5.26 µg/mL).

`FC(F)(F)Oc1ccccc1CN1C(CN2CCCC2)CC1c1ccccc1` (racemic) [Azet 61, rac-1-(((2,4-cis)-4-phenyl-1-(2-(trifluoromethoxy)benzyl)azetidin-2-yl)methyl)pyrrolidine]: the MIC50 under setting [1] was determined as 17.9 µM (≈ 6.99 µg/mL).

For `FC(F)(F)Oc1ccccc1CN1C(CN2CCCC2)CC1c1ccccc1OC(F)(F)F` (racemic) [Azet 57, rac-1-(((2,4-cis)-1-(2-(trifluoromethoxy)benzyl) (trifluoromethoxy)phenyl)azetidin-2-yl)methyl)pyrrolidine], under setting [1], the MIC50 was determined as 7.05 µM (≈ 3.34 µg/mL).

In the case of `FC(F)(F)c1ccc(C2CC(CN3CCCC3)N2Cc2ccccc2C(F)(F)F)cc1` (racemic) [Azet 51, rac-1-(((2,4-cis)-1-(2-(trifluoromethyl)benzyl)-4-(4-(trifluoromethyl)phenyl)a-zetidin-2-yl)methyl)pyrrolidine], under setting [1], the MIC50 was determined as 8.31 µM (≈ 3.68 µg/mL).

For `COc1ccccc1CN1C(CN2CCCC2)CC1c1ccccc1Cl` (racemic) [Azet 55, rac-1-(((2,4-cis)-4-(2-chlorophenyl)-1-(2-methoxybenzyl)azetidin-2-yl)methyl)pyrrolidine], the MIC50 under setting [1] amounted to 27.6 µM (≈ 10.2 µg/mL).

As to `FC(F)(F)c1ccccc1CN1C(CN2CCCC2)CC1c1ccccc1` (racemic) [Azet 63, rac-1-(((2,4-cis)-4-phenyl-1-(2-(trifluoromethyl)benzyl)a-zetidin-2-yl)methyl)pyrrolidine], the MIC50 under setting [1] amounted to 22.7 µM (≈ 8.5 µg/mL).

For `Brc1cc(Br)cc(C2CC(CNC3CC3)N2Cc2ccccc2Br)c1` (racemic) [Azet 1, rac-N-(((2,4-cis)-1-(2-bromobenzyl)-4-(3,5-dibromophenyl)azetidin-2-yl)methyl)cyclopropana-mine], under setting [1], the MIC99 was determined as 51.8 µM (≈ 27.4 µg/mL) and the MIC50 was 11.8 µM (≈ 6.24 µg/mL).

Consider `Clc1cc(Cl)cc(C2CC(CN3CCCC3)N2Cc2ccccc2Br)c1` (racemic) [Azet 32, rac-1-(((2,4-cis)-1-(2-bromobenzyl)-4-(3,5-dichlorophenyl)azetidin-2-yl)methyl)pyrrolidine], for which, under setting [1], the MIC99 was 9.21 µM (≈ 4.18 µg/mL) and the MIC50 was 7.58 µM (≈ 3.44 µg/mL).

For the molecule `FC(F)(F)Oc1cccc(C2CC(CN3CCCC3)N2Cc2ccccc2OC(F)(F)F)c1` (racemic) [Azet 58, rac-1-(((2,4-cis)-1-(2-(trifluoromethoxy)benzyl) (trifluoromethoxy)phenyl)azetidin-2-yl)methyl)pyrrolidine], the MIC50 under setting [1] came out at 9.14 µM (≈ 4.34 µg/mL).

On to `Cc1ccccc1CN1C(CN2CCCC2)CC1c1ccccc1` (racemic) [Azet 62, rac-1-(((2,4-cis)-1-(2-methylbenzyl)-4-phenylazetidin-2-yl)methyl)pyrrolidine], for which the MIC50 under setting [1] stood at 37 µM (≈ 11.9 µg/mL).

`CC(C)NCC1CC(c2ccc(OC(F)(F)F)cc2)N1Cc1ccccc1OC(F)(F)F` (racemic) [Azet 31, rac-N-(((2,4-cis)-1-(2-(trifluoromethoxy)benzyl)-4-(4-(trifluoromethoxy)phenyl)azetidin-2-yl)methyl)propan-2-amine]: under setting [1], the MIC99 was determined as 26.4 µM (≈ 12.2 µg/mL) and the MIC50 came to 8.89 µM (≈ 4.11 µg/mL).

For the molecule `FC(F)(F)Oc1ccc(C2CC(CN3CCC(c4ccc(C(F)(F)F)cc4)CC3)N2Cc2ccccc2Br)cc1` (racemic) [Azet 39, rac-1-(((2,4-cis)-1-(2-bromobenzyl)-4-(4-(trifluoromethoxy)phenyl)azetidin-2-yl)methyl)-4-(4-(trifluoromethyl)phenyl)pi-peridine], under setting [1], the MIC99 is 90.9 µM (≈ 57 µg/mL) and the MIC50 came out at 85 µM (≈ 53.3 µg/mL).

For `CN(C)CC1CC(c2cc(Br)cc(Br)c2)N1Cc1ccccc1Br` (racemic) [Azet 2, rac-1-((2,4-cis)-1-(2-bromobenzyl)-4-(3,5-dibromophenyl)azetidin-2-yl)-N,N-dimethylmethanamine], the MIC50 under setting [1] was 5.6 µM (≈ 2.9 µg/mL).

The record behind these values is US20220096437A1, “ANTIBACTERIAL COMPOUNDS” (The University of Birmingham, priority 2019, published 2022).
